Read-outs that look alike come from different tables or passages of the source.
Tests used:
[1] = UV/Vis absorption spectra; type: physicochemical; details: for λabs: absorption maximum, in CH3CN; for ε × 10^4: molar extinction coefficient at the absorption maxima, values × 10^4
Method: (§1) The UV-vis absorption spectra were taken on Cary 60 UV-vis spectrophotometer. Steady-state emission spectra at room temperature were recorded on an Edinburgh Instruments FLS980 fluorescence spectrometer. Quartz cuvettes (path length=1 cm) were used in all spectrophotometric and fluorometric measurements. NMR spectra were recorded on a Bruker AVANCE 400 (^1H NMR for 400 MHz and ^13C NMR for 100 MHz) Fourier transform NMR spectrometer with chemical shifts reported relative to tetramethylsilane, (CH3)4Si. High-resolution MS spectra were performed on an Orbitrap Fusion Tribrid mass spectrometer. Elemental analyses of the newly synthesized complexes were preformed on a Elementar Vario EL Cube elemental analyzer at Sun Yat-sen University. The nanosecond time-resolved transient-difference absorption spectra were detected by using Edinburgh LP920 instruments (Edinburgh Instruments, U.K.). All solutions for transient absorption studies were degassed on a high-vacuum line in a two-compartment cell consisting of a 10-ml Pyrex bulb and a 1-cm or 4-mm path length quartz cuvette and sealed from the atmosphere by a Bibby Rotaflo HP6 Teflon stopper. The solutions were rigorously degassed with at least four successive freeze-pump-thaw cycles. Emission lifetime measurements were performed using a conventional laser system. The excitation source used was a 355-nm output (third harmonic) of a Spectra-Physics Quanta-Ray Q-switched GCR-150-10 pulsed Nd-YAG laser. Luminescence decay signals were detected by a Hamamatsu R928 PMT and recorded on a Tektronix Model TDS-620A (500 MHz, 2 GS/s) digital oscilloscope and analyzed using a program for exponential fits. Absolute quantum yields were measured by HAMAMATSU-C11347.

[2] = Steady-state emission spectra and absolute luminescence quantum yield; type: physicochemical; details: for λem: Conc. = 1.0 × 10^−6M in MeOH; for Φlum: absolute luminescence quantum yield measured by HAMAMATSU-C11347
Method: as §1

[3] = Nanosecond transient absorption difference spectroscopy; type: physicochemical; details: for TT (triplet-state lifetimes): measured by transient absorption in CH3CN
Excerpt: Nanosecond transient absorption (TA) difference spectroscopy was employed to investigate the triplet excited states of M-Rho (FIG. 2c and FIGS. 16-19). Upon pulsed laser excitation at 355 nm, an intense bleaching signal at 575 nm with lifetime in microsecond range is observed, which is ascribed to the depletion of ground state rhodamine absorption. Such a long-lived excited state should be localized on the rhodamine unit, and is assigned as the ^3IL excited state of rhodamine in M-Rho. The absorption signal at 610-800 nm is due to the rhodamine ^3IL excited state absorption. In contrast, no signal from this triplet excited state is detected in bpy-Rho because of the lack of efficient ISC. On the other hand, only the transient absorption signals originating from the corresponding ^3MLCT excited states are observed in the rhodamine-free analogues (FIGS. 20-21).
as §1

[4] = Singlet oxygen quantum yield; type: physicochemical; details: for ΦΔ (singlet oxygen quantum yield): relative to rose bengal (ΦΔ = 0.76)
Excerpt: (§2) The long-lived triplet excited state of rhodamine is anticipated to interact with molecular oxygen (^3O2) to form singlet oxygen (^1O2), which is useful for PDT applications. The ability of M-Rho to produce ^1O2 has been evaluated spectroscopically by the observation of ^1O2 emission at about 1270 nm (inset of FIG. 2b). Remarkable ^1O2 emission is observed in Ir-Rho, Re-Rho and Pt-Rho but not for Rh-Rho and bpy-Rho. By monitoring the diminution of the characteristic absorption of the ^1O2 scavenger 1,3-diphenylisobenzofuran (DPBF) at 410 nm, ^1O2 generation is also confirmed and the corresponding quantum yields (ϕΔ) for the complexes are determined (Table 1). […] The rate and quantum yield of ^1O2 generation are found to vary with different metal systems.
Singlet oxygen quantum yield was determined by comparing the ^1O2 emission intensity of Rose Bengal and M-Rho.

[5] = Singlet oxygen emission at about 1270 nm; type: physicochemical; details: in CH3CN
Method: Singlet oxygen emission was detected by using FLS-980 spectrofluorometer. All of the compounds were dissolved in CH3CN. The absorbance at 532 nm was adjusted to be around 1.7 for all the compounds. Upon measurements, an 850 nm long-pass filter was inserted in between the sample and the detector to avoid many high-order diffraction from the visible emission.

MCF-7 cells [6] = assay: Mitochondrial membrane potential, flow-cytometry-based JC-1 assay; type: cell-based, human; details: 5 uM, 11 W lamp 30 min
Method: Mitochondrial depolarization was assessed by flow cytometry after incubation with JC-1 Molecular Probes (Thermo Fisher Scientific, USA). Briefly, The MCF-7 cells were seeded in six-well plate, incubated for 24 h in 5% CO2 at 37° C. Next, added to compounds (bpy-Rho and M-Rho) in medium make the final concentrations of 5 uM compounds. After irradiation treatment (11 W lamp 30 min). The cells were resuspended in warm PBS, and incubated with JC-1 (4 μg/ml) for 30 min at 37° C. and 5% CO2. Thereafter the cells were centrifuged, resuspended in 600 μL of PBS, and analyzed immediately on a flow cytometer (Becton Dickinson, San Jose, Calif., USA). Untreated cells were used as negative controls.

[7] = Octanol-water partition coefficient
Excerpt: (§3) Octanol-water partition coefficients (log Po/w)^[27] of bpy-Rho and M-Rho have been measured in order to study their lipophilic/hydrophilic characters. The higher is the log Po/w value associated with the dye, the higher is its lipophilic character.

[8] = DPBF 1O2 scavenger absorbance under 11-W lamp irradiation; type: physicochemical; details: irradiation with a 11-W lamp; 50 μM DPBF, 5 μM compound
Method: Rose Bengal was measured in MeOH.
as §2

MCF-7 cells [9] = assay: Intracellular ROS, DCFH-DA assay; type: cell-based, human; details: 5 μM, 11-W lamp for 30 min
Method: The MCF-7 cells were seeded in eight-well chambered coverglasses (lab-Tek, Nunc, USA) and six-well plate, incubated for 24 h in 5% CO2 at 37° C. Next, added to compounds (bpy-Rho and M-Rho) in medium make the final concentrations of 5 μM compounds. After irradiation treatment (11 W lamp 30 min), cells were promptly washed with PBS and incubated with 4 μg/ml 2′7′-dichloro-fluoreseindiacetate (DCFH-DA) for 30 min, and intracellular ROS generation was evaluated by flow cytometry and confocal microscopy.

MCF-7 cells [10] = assay: Subcellular localization with MitoTracker Green; type: cell-based, human; details: 5 μM, co-stained with MitoTracker Green
Method: MCF-7 cells (5000 cells) were cultured in eight-well chambered coverglasses (lab-Tek, Nunc, USA) for 24 h. Later, added to the cells to give final complexes concentrations (5 μM). After incubation for 30 min, The cells were treated with Mito-Tracker for 10 min to stain specifically the mitochondria (1:5000 dilution in PBS). After washing three times with PBS, followed by confocal microscopy imaging.

MCF-7 cells [11] = assay: Mitochondria-localized ROS, MitoSOX Red; type: cell-based, human; details: 10 μM, 11 W lamp irradiation for 10 min
Method: (a) Confocal fluorescence microscopic images of MCF-7 cells treated with MitoSOX (1.0 μM) according to the treatment variables, including with coincubation with bpy-Rho and M-Rho (10 μM), 11 W lamp irradiation for 10 min. (b) Flow cytometry analysis of MCF-7 cells (n=10000 cells) after treatment with MitoSox and different Rhodamine-metal Complexes mean fluorescence intensity per cell.
On the basis of the results of intracellular ROS production and colocalization study, it is reasonable to anticipate that the ROS is essentially generated within the mitochondria. MitoSOX Red reagent, a mitochondrial ROS indicator, is also used to probe specifically the generation of mitochondria-localized ROS. Intense red fluorescence from the oxidation of MitoSOX is observed in both confocal fluorescence microscopy images (FIG. 26a) and flow cytometry analysis (FIG. 26b) of MCG-7 cells incubated with MitoSOX and M-Rho.

[12] = octanol-water, literature value; cited from earlier work

Excerpt for physchem: as §3

SMILES | λabs [1] [nm] | ε × 10^4 [1] [M^−1 cm^−1] | λem [2] [nm] | Φlum [2] | TT (triplet-state lifetimes) [3] [μs] | ΦΔ (singlet oxygen quantum yield) [4] | 1O2 emission at about 1270 nm [5] | ratio of JC-1 aggregates/JC-1 monomers (MCF-7 cells [6]) | log Po/w [7] | rate and quantum yield of 1O2 generation, ranking ([4]; among M-Rho) | emission ([2]; in MeCN) [nm] | signal from rhodamine triplet excited state ([3]; excitation at 355 nm) | DPBF absorption at 410 nm [8] | intracellular ROS generation (MCF-7 cells [9]) | mitochondrial localization (MCF-7 cells [10]) | MitoSOX red fluorescence (mitochondria-localized ROS) (MCF-7 cells [11]) | logP (physchem) | log Po/w [12]
CCN(CC)c1ccc2c(-c3ccnc(-c4cc(C)ccn4)c3)c3ccc(=[N+](CC)CC)cc-3oc2c1.F[P-](F)(F)(F)(F)F.[C](#Cc1ccccc1)[Pt][C]#Cc1ccccc1 [Pt-Rho] | 574 | 7.96 | 631 | 0.062 | 8.49 | 0.57 | Remarkable | 8.16 | 1.26 |  |  |  |  |  |  |  |  | 
CCN(CC)c1ccc2c(-c3ccnc(-c4cc(C)ccn4)c3)c3ccc(=[N+](CC)CC)cc-3oc2c1.F[P-](F)(F)(F)(F)F.F[P-](F)(F)(F)(F)F.c1ccc(-c2cccc[c]2[Rh+][c]2ccccc2-c2ccccn2)nc1 [Rh-Rho] | 574 | 8.24 | 629 | 0.23 | 14.1 | 0.37 | not | 11.28 | −1.05 | worst photosensitizer |  |  |  |  |  |  |  | 
CCN(CC)c1ccc2c(-c3ccnc(-c4cc(C)ccn4)c3)c3ccc(=[N+](CC)CC)cc-3oc2c1 [bpy-Rho, N-(6-(diethylamino)-9-(4′-methyl-[2,2′-bipyridin]-4-yl)-3H-xanthen-3-ylidene)-N-ethylethanaminium] | 564 | 9.86 | 598 | 0.29 |  | 0.08 | not | 14.23 |  |  | 598 | no signal | negligible decrease | negligible or a little amount of ROS | relatively less mitochondria-localized | very weak red fluorescence | 0.49 | 
COC(=O)c1ccccc1-c1c2ccc(=N)cc-2oc2cc(N)ccc12.Cl [rhodamine 123] |  |  |  |  |  |  |  |  |  |  |  |  |  |  |  |  |  | −0.62

— US11214586B2, “Rhodamine triplet state complex and preparation and photodynamic therapy (PDT) study thereof” (SOUTHERN UNIVERSITY OF SCIENCE AND TECHNOLOGY, priority 2018, dated 2022)
